Key:
[1] = Solid state form and hygroscopicity, as stated in the description; format: physicochemical; details: hydrochloride salts
[2] = system: ADP-induced ex vivo platelet aggregation; assay: Ex vivo platelet aggregation inhibition in dogs, ADP-induced; design: species or system dog; details: for Inhibition of aggregation: ADP
Protocol: (§1) Dogs of either sex (mixed breed of Labrador/Harrier, body weight 21-28 kg) were fasted overnight. The test compounds were administered orally in gelatine capsules or intravenously. Before administration of the test compounds and several times during 24 hours thereafter, 20 ml of blood were withdrawn from the cephalic vein into acid citrate dextrose (9+1volumes). Platelet rich plasma (PRP) was obtained by centrifugation. Platelet aggregation was measured in PRP after addition of either ADP (3-30 μmol/l) or collagen (0.3-10 μg/ml) plus epinephrine (10 μM) at 37° C. in an aggregometer (BioData). Percent of maximal aggregation before and after drug administration was compared. The percent inhibition of aggregation at the lowest concentration of the agonist which induced irreversible maximal aggregation is given. In addition, the cutaneous bleeding time was measured at the shaved inner forearm using the Simplate® 1 device at the times of blood collection. Percent prolongation of bleeding time after drug administration as compared to the predrug value is calculated.
(§2) When ethyl (S)-3-(2-( (S)-4-(4-(amino-imino-methyl) phenyl)-4-methyl-2,5-dioxoimidazolidin-1-yl)acetylamino)-3-phenylpropionate hydrogen maleate was examined the following results were obtained. Given is the percent inhibition of platelet aggregation 1 h, 4 h, 8 h and 24 h after administration of the test substance. The dose is given in mg per kg body weight. n is the number of dogs tested.

[3] = Hemodynamic parameters in the coronary cyclic flow variation model in dogs; format: in vivo, dog; details: all hemodynamic parameters, intravenous or intraduodenal
Description: Dogs of either sex (20-35 kg) were anesthetized (Ketamine plus sodium pentobarbital infusion), ventilated and instrumented for the measurement of hemodynamic parameters (peripheral and left ventricular blood pressure, myocardial contractility, heart rate), and ECG. Blood gases and hematocrit were kept constant by infusion of electrolytes. After a left thoracotomy, the heart was exposed and the left circumflex coronary artery (LCX) was instrumented with an electromagnetic flow probe to measure mean coronary blood flow. Distal to the flow probe, the LCX was shortly squeezed with forceps in order to damage the endothelium, and a small concentrically constricting plastic cylinder was placed onto the damaged site (between 1.0 and 1.7 mm inner diameter, depending on the size of the LCX, and 4 mm length). The constrictor abolished the reactive hyperemic response to a 10 second occlusion of the LCX and initiated the appearance of flow cycles (approx. 10 per hour) resulting from recurrent formation of platelet rich thrombi at the stenosed site. […] Cyclic flow variations were further monitored for at least 2 to 5 hours. Percent inhibition of coronary thrombotic cyclic flow variations was calculated by comparison of the mean number of cyclic flow variations per hour before and after administration of the compound in 5 to 8 animals. […]

[4] = system: coronary cyclic flow variations (recurrent formation of platelet rich thrombi); assay: Coronary cyclic flow variations in dogs (model of unstable angina); format: in vivo, dog
Description: Dogs of either sex (20-35 kg) were anesthetized (Ketamine plus sodium pentobarbital infusion), ventilated and instrumented for the measurement of hemodynamic parameters (peripheral and left ventricular blood pressure, myocardial contractility, heart rate), and ECG. Blood gases and hematocrit were kept constant by infusion of electrolytes. After a left thoracotomy, the heart was exposed and the left circumflex coronary artery (LCX) was instrumented with an electromagnetic flow probe to measure mean coronary blood flow. Distal to the flow probe, the LCX was shortly squeezed with forceps in order to damage the endothelium, and a small concentrically constricting plastic cylinder was placed onto the damaged site (between 1.0 and 1.7 mm inner diameter, depending on the size of the LCX, and 4 mm length). The constrictor abolished the reactive hyperemic response to a 10 second occlusion of the LCX and initiated the appearance of flow cycles (approx. 10 per hour) resulting from recurrent formation of platelet rich thrombi at the stenosed site. After 60 min of regular cyclic flow variations, the test compounds were administered by intravenous or intraduodenal bolus application. Cyclic flow variations were further monitored for at least 2 to 5 hours. Percent inhibition of coronary thrombotic cyclic flow variations was calculated by comparison of the mean number of cyclic flow variations per hour before and after administration of the compound in 5 to 8 animals. In control animals, the number of cyclic flow variations per hour remained constant for several hours. (References: Folts, J. D. et al. (1976), Circulation 54: 365-370; Just, M. et al. (1989), J. Cardiovasc. Pharmacol. 14 (suppl. 11): S 129-136)
When ethyl (S)-3-(2-((S)-4-(4-(amino-imino-methyl)phenyl)-4methyl-2,5-dioxoimidazolidin-1-yl)acetylamino)-3-phenylpropionate hydrogen maleate was examined the following results were obtained. Given is the percent reduction of the number of stenosis induced coronary cyclic flow variations (CFV's) per hour in the first, the second and the third hour after administration of the test compound as compared to the predrug period. The dose is given in mg per kg of body weight.

[5] = system: collagen induced ex vivo platelet aggregation; assay: Ex vivo platelet aggregation inhibition in dogs, collagen induced; design: species or system dog; details: collagen plus epinephrine
Protocol: as §1, §2

[6] = Determination of water vapor sorption (automatic two-limbed microbalance, 25° C.); format: physicochemical
Protocol: The water uptake of a substance was determined using an automatic two-limbed microbalance which is operated in vacuo or in an atmosphere which has a defined composition or a defined pressure. The dry sample is located on one side of the balance and a taring weight is located on the other side. A water vapor atmosphere, whose pressure was increased stepwise, was generated in the weighing space. The increase in weight of the sample as a function of the water vapor pressure was recorded. The measurement was carried out at a constant temperature of 25° C.
The weighing space was first of all evacuated to constant weight and the starting weight of the sample was determined. A defined quantity of water vapor was then passed into the evacuated weighing space through an inlet valve. In the experiment which is reproduced below, the water vapor pressure which was set in this first step corresponds, at the measuring temperature of 25° C., to a relative atmospheric humidity of 4.7%. When constant weight was once again reached after passing in the water vapor, i.e. when the sample was in equilibrium with the water vapor atmosphere, the increase in weight of the sample was recorded. After that, the water vapor pressure was increased in several steps by passing in further water vapor (with each water vapor pressure corresponding to a defined relative atmospheric humidity at the measuring temperature of 25° C.). In each step, the increase in weight of the sample was recorded after constant weight had been reached. When ethyl (S)-3-(2-((S)-4-(4-(amino-imino-methyl)phenyl)-4-methyl-2,5-dioxo-imidazolidin-1-yl)-acetylamino)-3-phenylpropionate hydrogen maleate was examined, the following weight increases, based on the starting weight of the sample, were observed.

[7] = Cutaneous bleeding time in dogs (Simplate 1 device); format: in vivo, dog; details: for maximal prolongation of bleeding time: p<0.05
Protocol: as §1

[8] = 0.5 mg/kg intravenously, n=6, after 1 h
[9] = 0.5 mg/kg intravenously, n=6, after 4 h
[10] = 0.5 mg/kg intravenously, n=6, after 8 h
[11] = 0.5 mg/kg intravenously, n=6, after 24 h
[12] = 0.5 mg/kg orally, n=6, after 1 h
[13] = 0.5 mg/kg orally, n=6, after 4 h
[14] = 0.5 mg/kg orally, n=6, after 8 h
[15] = 0.5 mg/kg orally, n=6, after 24 h
[16] = 1 mg/kg orally, n=6, after 24 h
[17] = 2 mg/kg orally, n=8, after 24 h

With `CCOC(=O)C[C@H](NC(=O)CN1C(=O)N[C@@](C)(c2ccc(C(=N)N)cc2)C1=O)c1ccccc1` [ethyl (S)-3-(2-((S)-4-(4-(amino-imino-methyl)phenyl)-4-methyl-2,5-dioxoimidazolidin-1-yl)acetylamino)-3-phenylpropionate] the solid state form [1] was “amorphous and cannot be obtained in the crystalline state”.

In the case of `CCOC(=O)C[C@H](NC(=O)CN1C(=O)N[C@](C)(c2ccc(C(=N)N)cc2)C1=O)c1ccccc1` [ethyl (S)-3-(2-((R)-4-(4-(amino-imino-methyl)phenyl)-4-methyl-2,5-dioxoimidazolidin-1-yl)-acetylamino)-3-phenylpropionate], the solid state form [1] is reported as “amorphous and cannot be obtained in the crystalline state”.

For `CCOC(=O)C[C@@H](NC(=O)CN1C(=O)N[C@@](C)(c2ccc(C(=N)N)cc2)C1=O)c1ccccc1` [ethyl (R)-3-(2-((S)-4-(4-(amino-imino-methyl)phenyl)-4-methyl-2,5-dioxoimidazolidin-1-yl)acetylamino)-3-phenylpropionate], the solid state form [1] was “amorphous and cannot be obtained in the crystalline state”.

In the case of `CCOC(=O)C[C@@H](NC(=O)CN1C(=O)N[C@](C)(c2ccc(C(=N)N)cc2)C1=O)c1ccccc1` [ethyl (R)-3-(2-((R)-4-(4-(amino-imino-methyl)phenyl)-4-methyl-2,5-dioxo-imidazolidin-1-yl)acetylamino)-3-phenylpropionate], the solid state form [1] is reported as “amorphous and cannot be obtained in the crystalline state”.

Compound `CCOC(=O)C[C@H](NC(=O)CN1C(=O)N[C@@](C)(c2ccc(C(=N)N)cc2)C1=O)c1ccccc1.O=C(O)/C=C\C(=O)O` [Ethyl (S)-3-(2-((S)-4-(4-(amino-imino-methyl)phenyl)-4-methyl-2,5-dioxo-imidazolidin-1-yl)acetylamino)-3-phenylpropionate hydrogen maleate] has an Inhibition of aggregation [2, 8] of 93%, an Inhibition of aggregation [2, 9] of 88% and an Inhibition of aggregation [2, 10] of 59%. For the same compound, the Inhibition of aggregation [2, 11] was 16%, the Inhibition of aggregation [2, 12] was 46% and the Inhibition of aggregation [2, 13] was 83%. For the same compound, the Inhibition of aggregation [2, 14] was 33%, the Inhibition of aggregation [2, 15] was 18% and the Inhibition of aggregation ([2]; 1 mg/kg orally, n=6, after 1 h) was 76%. It also gave an Inhibition of aggregation ([2]; 1 mg/kg orally, n=6, after 4 h) of 97%, an Inhibition of aggregation ([2]; 1 mg/kg orally, n=6, after 8 h) of 86% and an Inhibition of aggregation [2, 16] of 70%. The Inhibition of aggregation ([2]; 2 mg/kg orally, n=8, after 1 h) was 64%, the Inhibition of aggregation ([2]; 2 mg/kg orally, n=8, after 4 h) was 86% and the Inhibition of aggregation ([2]; 2 mg/kg orally, n=8, after 8 h) was 78%. The Inhibition of aggregation [2, 17] was 49%, the “efficacy as inhibitor of platelet aggregation” value ([2]; in words, ADP- and collagen-induced) was “pronounced efficacy” and the “hemodynamic parameters recorded during the test” value [3] was “not significantly changed”. The “Reduction of CFV's” value ([4]; 0.1 mg/kg intraduodenally, first hour) was 39%, the “Reduction of CFV's” value ([4]; 0.1 mg/kg intraduodenally, second hour) was 62% and the “Reduction of CFV's” value ([4]; 0.1 mg/kg intraduodenally, third hour) was 74%. For the same compound, the “Reduction of CFV's” value ([4]; 0.1 mg/kg intravenously, first hour) was 52%, the “Reduction of CFV's” value ([4]; 0.1 mg/kg intravenously, second hour) was 81% and the “Reduction of CFV's” value ([4]; 0.1 mg/kg intravenously, third hour) was 89%. The “Reduction of CFV's” value ([4]; 0.2 mg/kg intravenously, first hour) was 75%, the “Reduction of CFV's” value ([4]; 0.2 mg/kg intravenously, second hour) was 96% and the “Reduction of CFV's” value ([4]; 0.2 mg/kg intravenously, third hour) was 99%. For the same compound, the “Reduction of CFV's” value ([4]; 0.3 mg/kg intraduodenally, first hour) was 23%, the “Reduction of CFV's” value ([4]; 0.3 mg/kg intraduodenally, second hour) was 66% and the “Reduction of CFV's” value ([4]; 0.3 mg/kg intraduodenally, third hour) was 78%. The antithrombotic activity ([4]; dog, in vivo) was “powerful antithrombotic activity”, the Inhibition of aggregation [5, 8] was 27% and the Inhibition of aggregation [5, 9] was 26%. The Inhibition of aggregation [5, 10] was 18%, the Inhibition of aggregation [5, 11] was 0% and the Inhibition of aggregation [5, 12] was 8%. The Inhibition of aggregation [5, 13] was 19%, the Inhibition of aggregation [5, 14] was 5% and the Inhibition of aggregation [5, 15] was 0%. It also gave an Inhibition of aggregation ([5]; 1 mg/kg orally, n=6, after 1 h) of 36%, an Inhibition of aggregation ([5]; 1 mg/kg orally, n=6, after 4 h) of 67% and an Inhibition of aggregation ([5]; 1 mg/kg orally, n=6, after 8 h) of 50%. The Inhibition of aggregation [5, 16] was 11%, the Inhibition of aggregation ([5]; 2 mg/kg orally, n=8, after 1 h) was 28% and the Inhibition of aggregation ([5]; 2 mg/kg orally, n=8, after 4 h) was 65%. For the same compound, the Inhibition of aggregation ([5]; 2 mg/kg orally, n=8, after 8 h) was 60%, the Inhibition of aggregation [5, 17] was 20% and the hygroscopicity ([6]; 25° C.) was “not hygroscopic”. The increase in weight ([6]; relative atmospheric humidity of approx. 80%) was “approx. 0.5%”, the “Increase in weight of the sample” value ([6]; relative humidity 4.7%, 25° C.) was 0.06% and the “Increase in weight of the sample” value ([6]; relative humidity 18.5%, 25° C.) was 0.11%. For the same compound, the “Increase in weight of the sample” value ([6]; relative humidity 32.8%, 25° C.) was 0.16%, the “Increase in weight of the sample” value ([6]; relative humidity 49.6%, 25° C.) was 0.23% and the “Increase in weight of the sample” value ([6]; relative humidity 64.7%, 25° C.) was 0.33%. The “Increase in weight of the sample” value ([6]; relative humidity 75.5%, 25° C.) was 0.43%, the “Increase in weight of the sample” value ([6]; relative humidity 82.1%, 25° C.) was 0.54% and the “maximal prolongation of bleeding time” value ([7]; 0.5 mg/kg intravenous, at 4 hours) was 68%. For the same compound, the “maximal prolongation of bleeding time” value ([7]; 2 mg/kg oral, at 2 hours) was 122% and the bleeding times ([7]; at the lower oral doses (0.5 and 1 mg/kg)) was “not significantly changed”.

From US6294562A, “Salts of ethyl 3-(2-(4-(4-amino-imino-methyl)phenyl)-4-methyl-2,5-dioxo-imidazolidin-1-yl )acetylamino)-3-phenylpropionate” (Hoechst Aktiengesellschaft, priority 1996, dated 2001)
